According to patent US20230220047A1, “PEPTIDES FOR TREATMENT OF SEPSIS AND CANCER” (NORWEGIAN UNIVERSITY OF SCIENCE AND TECHNOLOGY (NTNU), priority 2020, published 2023):
“Also recorded” adds a separate entry of the source.

Legend:
THP-1 cells = experiment: Viability of acute myeloid leukaemia cell line THP-1; assay type: cell-based, human; conditions: 5-30 μM, 48 h
Method: THP-1 cells were seeded in medium at 10,000 cells/well, as indicated by the dotted line. Cells were incubated for 48 hours in medium supplemented with water, C3A-Pen, P7-Pen, P7-A4-Pen or P7-N4-Pen. The peptides were included at concentrations ranging from 5-30 μM. At 48 hours cells were counted. […] The results with other peptides were less clear-cut. Results are based on 3 biological replicates, error bars show standard deviation of mean.
(§1) The peptides were tested against the SW480 cell line in the presence and absence of LPS.

SW480 cells = experiment: Proliferation of SW480 colon cancer cells; assay type: cell-based, human; conditions: 15 μM, 48 h, with or without LPS 100 ng/ml
Method: SW480 cells were seeded and incubated in medium alone or supplemented with water, 15 μM penetratin, 15 μM P7-Pen or 15 μM P7-N4-Pen. Under each condition cells were incubated both without LPS and with 100 ng/ml LPS. Cells were incubated for 48 hours then counted. […] The presence of LPS made no difference to the effect of the peptides on proliferation. Results are based on 3 biological replicates, error bars show standard deviation of mean.
(§2) SW480 (ATCC CCL-228) and Jurkat (ATCC Clone E6-1; TIB-152) cells were cultured in RPMI 1640 (Sigma-Aldrich, Schnelldorf, Germany) supplemented with 10% heat-inactivated FCS, penicillin/streptomycin (Life Technologies) and 20 mM L-Glutamine. THP-1 cells (ATCC TIB-202) were cultured in RPMI-1640 (high-glucose, ATCC) supplemented with 10% heat inactivated foetal calf serum (FCS), 100 nM penicillin/streptomycin and 5 μM β-mercaptoethanol (Sigma). THP-1 cells were differentiated with 60 ng/ml phorbol 12-myristate 13-acetate (PMA, Sigma) for 72 h, followed by 24 or 48 h in medium without PMA.
as §1

Jurkat cells = experiment: Proliferation of Jurkat T cell leukaemia cells; assay type: cell-based, human; conditions: 15 μM or 20 μM, 48 h
Method: Jurkat cells were seeded at 5000 cells/well (as indicated by dotted line) and incubated in medium supplemented with water, penetratin, P7-Pen or P7-N4-Pen. Peptides were included at 15 μM (A) or 20 μM (B). Cells were incubated for 48 hours then counted. […] Results are based on 3 biological replicates, error bars show standard deviation of mean.
as §2, §1

[1] = tested on: JJN-3 multiple myeloma cells; assay type: cell-based, human; conditions: JJN-3, 4 μM peptide
From the text: Minor effects on the proliferation of the IH-1 and RPMI 8226 cell lines are seen. […] The number of viable cells was detected based on quantitation of ATP by luminescent signal in correlation to a standard curve prepared for each cell line. Results are based on 3-5 biological replicates for each condition, error bars show standard deviation of mean.
(§3) Multiple myeloma cells JJN-3 (DSMZ (Germany) no. ACC 541), ANBL-6 (Cellosaurus accession number CVCL_5425, obtained from Dr Diane Jelinek, Mayo Clinic, Rochester, Minn.), INA-6 (Cellosaurus accession number CVCL_5209, obtained from Dr M. Gramatzki, University of Erlangen-Nurnberg, Erlangen, Germany), RPMI-8226 (ATCC CCL-155), and IH-1 (Cellosaurus accession number CVCL_WZ44, established from the pleural effusion of a myeloma patient by Myeloma research group, IKOM, NTNU, Trondheim, Norway) were grown in RPMI-1640 (Sigma-Aldrich Norway, Oslo, Norway) supplemented with 100 nM penicillin/streptomycin and 10% FCS, and for ANBL-6, IH-1 and INA-6 cells 2 ng/ml recombinant IL-6 (Gibco, Thermo Fisher Scientific, Waltham, Mass., USA). Murine multiple myeloma Vk*MYC cells were obtained from M.D. Leif Bergsagel (Mayo Clinic, Richester, Minn., USA) and cultured in RPMI-1640 supplemented with 2% human serum (B^+, The blood bank, St Olav's Hospital, Trondheim, Norway), 100 nM penicillin/streptomycin, L-Glutamine (2 mM) and recombinant IL-6 (1 ng/ml). HEK293T (ATCC CRL-3216) were cultured in DMEM with 10% FCS. THP-1 TRAM knockout (KO) and TLR4 KO cell lines, and matching lentivirally transduced control cell lines, were differentiated in the same way as wild type (WT) THP-1. TRAM KO THP-1 cell line is described in Yurchenko et al. (supra).
To evaluate the potential impact of the P7 peptide on proliferation of tumour cells of lymphoid origin, we performed a CellTiter-Glo Luminescent Cell Viability Assay to address proliferation of several multiple myeloma (MM) cell lines. […]

[2] = tested on: primary Vk*MYC multiple myeloma cells; experiment: Primary Vk*MYC multiple myeloma cells; assay type: cell-based, mouse; conditions: 7.5 or 15 μM, 48 h
Method: Isolated primary cells were seeded then incubated for 48 hours in growth medium supplemented with water, penetratin, P7-Pen, P7-A4-Pen or P7-N4-Pen, then counted. Peptides were included at concentrations of 7.5 or 15 μM. […] Results are based on 3 biological replicates, error bars show standard deviation of mean.
as §3
Primary multiple myeloma cells were isolated from Vk*Myc mice and provided by the Multiple Myeloma Research Group, IKOM, NTNU. The peptides P7-Pen, P7-N4-Pen and P7-A4-Pen were applied to the cultured primary cells and effect of the peptides on cell growth analysed as previously.

[3] = tested on: ANBL-6 multiple myeloma cells; experiment: CellTiter-Glo cell viability assay, ANBL-6; assay type: cell-based
Method: Minor effects on the proliferation of the IH-1 and RPMI 8226 cell lines are seen. Cells were seeded at the level shown (left-hand bar of each set) then incubated in medium containing water, 10 μM penetratin or 10 μM P7-A4-Pen for 48 hr (except for INA-6 cells, which were incubated with 12.5 μM penetratin or 12.5 μM P7-A4-Pen). The number of viable cells was detected based on quantitation of ATP by luminescent signal in correlation to a standard curve prepared for each cell line. Results are based on 3-5 biological replicates for each condition, error bars show standard deviation of mean.
Cells were seeded and then incubated in growth medium alone or supplemented with water, DMSO, 15 μM penetratin or 15 μM investigational peptide. The growth medium only and H2O—, DMSO- and penetratin-supplemented cultures constituted controls.
The solid horizontal lines show the amount of cells originally seeded. In (A) ANBL-6 cells were seeded at a level of 10,000 cells/well, then incubated in medium supplemented with water, the control peptide C3A-Pen, P7-Pen, P7-A4-Pen, P7-N4-Pen or P7-K2-Pen for 48 hours. The peptides were included at concentrations of 5, 10, 12.5, 15, 20 or 30 μM. Cells were counted at 48 hours. In (B), ANBL-6 cells were seeded at a level of 5000 cells/well, then incubated in medium supplemented with water, P6-Pen, P-P6-Pen, P7-D4-Pen or P7-A4-Pen for 48 hours. Peptides were included at concentrations of 5, 10 or 20 μM. Cells were counted at 48 hours. […] Results are based on 3 biological replicates, error bars show standard deviation of mean.
as §3
To evaluate the potential impact of the P7 peptide on proliferation of tumour cells of lymphoid origin, we performed a CellTiter-Glo Luminescent Cell Viability Assay to address proliferation of several multiple myeloma (MM) cell lines. For the assay, cells were incubated for 48 h in respective media containing either solvent (water), 10 μM control peptide (Pen) or the SLAMF1-derived peptide P7-A4-Pen for 48 h (FIG. 32) (with the exception of the INA-6 cells which were incubated with 12.5 μM control peptide or P7-A4-Pen). […] This effect could be mediated by P7-A4-Pen-induced inhibition of signalling pathways that are crucial for driving proliferation and/or survival of MM tumour cells.

Substance: Ac-ITVNASVTLTGRQIKIWFQNRRMKWKK-NH2 [Peptide P7-N4-Pen]
- effect on THP-1 cell number (THP-1 cells): clear dose-dependent cytotoxic effect; also recorded: anti-proliferative effect
- effect on proliferation of SW480 cells (SW480 cells): a degree of anti-proliferative effect
- effect on proliferation of Jurkat cells (Jurkat cells): modest but clear anti-proliferative effect
- combination effect with melphalan at low melphalan concentrations [1]: synergistic effect
- effect on primary multiple myeloma cells [2]: strong cytotoxic effect
- effect on proliferation of ANBL-6 cells ([3]; 15 μM): anti-proliferative effect
- anti-proliferative activity over a concentration series ([3]; 5, 10, 12.5, 15, 20 and 30 μM or 5, 10 and 20 μM, 48 h): clear concentration-dependent effect
